Measured values taken from US20250195513A1, “DEGRADATION OF IRAK4 BY CONJUGATION OF IRAK4 INHIBITORS WITH E3 LIGASE LIGAND AND METHODS OF USE” (BeiGene, Ltd., priority 2022, published 2025).
Like-named read-outs stand apart in the source and are kept apart here.

Molecular target: T1, IRAK4 (Homo sapiens, UniProt Q9NWZ3)
T1 construct: endogenous in cells; host or cells: Karpas299
T1 sequence (Q9NWZ3 1-460): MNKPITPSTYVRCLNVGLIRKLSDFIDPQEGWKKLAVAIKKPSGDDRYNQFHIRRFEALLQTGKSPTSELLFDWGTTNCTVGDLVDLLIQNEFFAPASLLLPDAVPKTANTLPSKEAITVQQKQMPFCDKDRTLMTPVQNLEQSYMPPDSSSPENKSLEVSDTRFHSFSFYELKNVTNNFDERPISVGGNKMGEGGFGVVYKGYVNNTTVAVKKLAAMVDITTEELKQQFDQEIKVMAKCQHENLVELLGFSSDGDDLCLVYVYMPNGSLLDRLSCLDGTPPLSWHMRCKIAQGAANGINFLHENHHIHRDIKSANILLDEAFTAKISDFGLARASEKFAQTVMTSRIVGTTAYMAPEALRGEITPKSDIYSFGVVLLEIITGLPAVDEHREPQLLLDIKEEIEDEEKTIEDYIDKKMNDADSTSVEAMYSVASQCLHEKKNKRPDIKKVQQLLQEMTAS
Assay: IRAK4 Degradation Assay (Karpas299, HTRF/TR-FRET)
Type: cell-based
How it was run: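 Karpas299 cells at 0.2 million per well were exposed to serially diluted compounds for 24 h or 5 h, then lysed. IRAK4 remaining in lysates was quantified by HTRF (665/620 nm) after overnight antibody incubation at room temperature. Percent degradation was fitted to a four-parameter curve to give IC50 (DC50).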

[1] = Degradation (Karpas-299), comparison table, Linker Type A, read-out: Compound (Linker Type A) DC50
[2] = Degradation (Karpas-299), comparison table, Linker Type A, read-out: Compound (Linker Type A) Dmax (%)
[3] = Karpas-299 cells, 24 h treatment, maximum percentage of degradation, read-out: IRAK4 in Karpas-299 (24 h) Dmax (%)
[4] = Karpas-299 cells, 24 h treatment, read-out: IRAK4 in Karpas-299 (24 h) DC50
[5] = Karpas-299 cells, 5 h treatment, maximum percentage of degradation, read-out: IRAK4 in Karpas-299 (5 h) Dmax (%)
[6] = Karpas-299 cells, 5 h treatment, read-out: IRAK4 in Karpas-299 (5 h) DC50

SMILES | DC50 [1] | Dmax [2] | Dmax [3] | DC50 [4] | Dmax [5] | DC50 [6] | DC50 (Degradation (Karpas-299), comparison table, Linker Type B, read-out: Compound (Linker Type B) DC50) | Dmax (Degradation (Karpas-299), comparison table, Linker Type B, read-out: Compound (Linker Type B) Dmax (%))
O=C1CC[C@H](c2c(F)cc(N3CC(C(=O)N4CCN(C[C@H]5CC[C@H](n6cc(NC(=O)c7coc(-c8ccnc(NCC(F)(F)F)c8)n7)c(C(F)F)n6)CC5)CC4)C3)cc2F)C(=O)N1 [Example 4, N-(3-(difluoromethyl)-1-((1r,4r)-4-((4-(1-(4-((R)-2,6-dioxopiperidin-3-yl)-3,5-difluorophenyl)azetidine-3-carbonyl)piperazin-1-yl)methyl)cyclohexyl)-1H-pyrazol-4-yl)-2-(2-((2,2,2-trifluoroethyl)amino)pyridin-4-yl)oxazole-4-carboxamide] | 6.2 nM | 95% | 95% | 6.2 nM | – | – | – | –
COc1cc2nn(C3CCN(C4CCN(C(=O)C5CN(c6ccc(N7CCC(=O)NC7=O)cc6)C5)CC4)CC3)cc2cc1NC(=O)c1cccc(C(F)(F)F)n1 [Example 44, N-(2-(1′-(1-(4-(2,4-dioxotetrahydropyrimidin-1(2H)-yl)phenyl)azetidine-3-carbonyl)-[1,4′-bipiperidin]-4-yl)-6-methoxy-2H-indazol-5-yl)-6-(trifluoromethyl)picolinamide] | – | – | 99% | 9.3 nM | – | – | – | –
CC(C)(O)c1cc2nn(C3CCN(C4CCN(C(=O)[C@@H]5CCN(c6ccc(N7CCC(=O)NC7=O)cc6)C5)CC4)CC3)cc2cc1NC(=O)c1cccc(C(F)(F)F)n1 [Example 162, (R)—N-(2-(1′-(1-(4-(2,4-dioxotetrahydropyrimidin-1(2H)-yl)phenyl)pyrrolidine-3-carbonyl)-[1,4′-bipiperidin]-4-yl)-6-(2-hydroxypropan-2-yl)-2H-indazol-5-yl)-6-(trifluoromethyl)picolinamide] | – | – | 96% | 5.7 nM | – | – | – | –
CC(C)(O)c1cc2nn([C@H]3CC[C@H](N4CCN(C(=O)C5CN(c6cc(F)c([C@H]7CCC(=O)NC7=O)c(F)c6)C5)CC4)CC3)cc2cc1NC(=O)c1cccn(C2CC2)c1=O [Example 102, 1-cyclopropyl-N-(2-((1r,4r)-4-(4-(1-(4-((R)-2,6-dioxopiperidin-3-yl)-3,5-difluorophenyl)azetidine-3-carbonyl)piperazin-1-yl)cyclohexyl)-6-(2-hydroxypropan-2-yl)-2H-indazol-5-yl)-2-oxo-1,2-dihydropyridine-3-carboxamide] | – | – | 94% | 2 nM | 61% | 12 nM | – | –
O=C1CCN(c2ccc(N3CC[C@H](C(=O)N4CCN([C@H]5CC[C@H](n6cc(NC(=O)c7coc(-c8ccnc(NCC9CC9)c8)n7)c(C(F)F)n6)CC5)CC4)C3)cc2)C(=O)N1 [Example 22, 2-(2-((cyclopropylmethyl)amino)pyridin-4-yl)-N-(3-(difluoromethyl)-1-((1S,4r)-4-(4-((S)-1-(4-(2,4-dioxotetrahydropyrimidin-1(2H)-yl)phenyl)pyrrolidine-3-carbonyl)piperazin-1-yl)cyclohexyl)-1H-pyrazol-4-yl)oxazole-4-carboxamide] | – | – | 90% | 6.8 nM | – | – | – | –
CC(C)(O)c1cc2nn([C@H]3CC[C@H](N4CCN(C(=O)[C@@H]5CCN(c6cc(F)c(N7CCC(=O)NC7=O)c(F)c6)C5)CC4)CC3)cc2cc1NC(=O)c1cccc(C(F)(F)F)n1 [Example 115, N-(2-((1R,4r)-4-(4-((R)-1-(4-(2,4-dioxotetrahydropyrimidin-1(2H)-yl)-3,5-difluorophenyl)pyrrolidine-3-carbonyl)piperazin-1-yl)cyclohexyl)-6-(2-hydroxypropan-2-yl)-2H-indazol-5-yl)-6-(trifluoromethyl)picolinamide] | – | – | 96% | 3.8 nM | – | – | – | –
O=C1CC[C@H](c2c(F)cc(N3CC[C@@H](C(=O)N4CCN([C@H]5CC[C@H](n6cc7cc(NC(=O)c8cccc(C(F)(F)F)n8)c(C(=O)NC8CC8)cc7n6)CC5)CC4)C3)cc2F)C(=O)N1 [Example 129, N-cyclopropyl-2-((1R,4r)-4-(4-((R)-1-(4-((R)-2,6-dioxopiperidin-3-yl)-3,5-difluorophenyl)pyrrolidine-3-carbonyl)piperazin-1-yl)cyclohexyl)-5-(6-(trifluoromethyl)picolinamido)-2H-indazole-6-carboxamide] | – | – | 99% | 1.9 nM | – | – | – | –
O=C1CC[C@H](c2c(F)cc(N3CC(C(=O)N4CCN([C@H]5CC[C@H](n6cc7cc(NC(=O)c8cccc(C(F)(F)F)n8)c(C(=O)NC8CC8)cc7n6)CC5)CC4)C3)cc2F)C(=O)N1 [Example 130] | – | – | 98% | 0.5 nM | – | – | – | –
NC(=O)c1nn([C@H]2CC[C@H](N3CCN(C4CC(c5ccc(N[C@@H]6CCC(=O)NC6=O)cc5)C4)CC3)CC2)cc1NC(=O)c1coc(-c2ccnc(NCC(F)(F)F)c2)n1 (stereo partly drawn) [Example 9, N-(3-carbamoyl-1-((1r,4r)-4-(4-(3-(4-(((R)-2,6-dioxopiperidin-3-yl)amino)phenyl)cyclobutyl)piperazin-1-yl)cyclohexyl)-1H-pyrazol-4-yl)-2-(2-((2,2,2-trifluoroethyl)amino)pyridin-4-yl)oxazole-4-carboxamide] | – | – | 95% | 2.5 nM | – | – | – | –
O=C1CC[C@H](c2c(F)cc(N3CC(C(=O)N4CCN([C@H]5CC[C@H](n6cc(NC(=O)c7coc(-c8ccnc(NCC(F)(F)F)c8)n7)c(C(F)F)n6)CC5)CC4)C3)cc2F)C(=O)N1 [Example 16, N-(3-(difluoromethyl)-1-((1r,4r)-4-(4-(1-(4-((R)-2,6-dioxopiperidin-3-yl)-3,5-difluorophenyl)azetidine-3-carbonyl)piperazin-1-yl)cyclohexyl)-1H-pyrazol-4-yl)-2-(2-((2,2,2-trifluoroethyl)amino)pyridin-4-yl)oxazole-4-carboxamide] | – | – | 98% | 0.67 nM | 96% | 5.7 nM | 0.67 nM | 98%
O=C1CCN(c2c(F)cc(N3CC(C(=O)N4CCN([C@H]5CC[C@H](n6cc(NC(=O)c7cnn(-c8ccnc(NCC9CC9)c8)n7)c(C(F)F)n6)CC5)CC4)C3)cc2F)C(=O)N1 [Example 61, 2-(2-((cyclopropylmethyl)amino)pyridin-4-yl)-N-(3-(difluoromethyl)-1-((1r,4r)-4-(4-(1-(4-(2,4-dioxotetrahydropyrimidin-1(2H)-yl)-3,5-difluorophenyl)azetidine-3-carbonyl)piperazin-1-yl)cyclohexyl)-1H-pyrazol-4-yl)-2H-1,2,3-triazole-4-carboxamide] | – | – | 96% | 5 nM | 86% | 24 nM | – | –
COc1cc2nn([C@H]3CC[C@H](CN4CCN(C(=O)C5CCN(c6ccc(N7CCC(=O)NC7=O)cc6)CC5)CC4)CC3)cc2cc1NC(=O)c1cccc(C(F)(F)F)n1 [Example 7, N-(2-((1r,4r)-4-((4-(1-(4-(2,4-dioxotetrahydropyrimidin-1(2H)-yl)phenyl)piperidine-4-carbonyl)piperazin-1-yl)methyl)cyclohexyl)-6-methoxy-2H-indazol-5-yl)-6-(trifluoromethyl)picolinamide] | 137 nM | 66% | 66% | 137 nM | – | – | – | –
CC(C)(O)c1cc2nn([C@H]3CC[C@H](N4CCN(C(=O)[C@@H]5CCN(c6cc(F)c([C@H]7CCC(=O)NC7=O)c(F)c6)C5)CC4)CC3)cc2cc1NC(=O)c1cccn(C2CC2)c1=O [Example 103, 1-cyclopropyl-N-(2-((1R,4r)-4-(4-((R)-1-(4-((R)-2,6-dioxopiperidin-3-yl)-3,5-difluorophenyl)pyrrolidine-3-carbonyl)piperazin-1-yl)cyclohexyl)-6-(2-hydroxypropan-2-yl)-2H-indazol-5-yl)-2-oxo-1,2-dihydropyridine-3-carboxamide] | – | – | 90% | 4.4 nM | – | – | – | –
